Test results: the supplement of paper PMC4862054

system: CAL-120; assay: drug sensitivity score (DSS), CellTiter-Glo (DSS (AUC-based score)); higher = stronger drug effect (viability inhibition or cytotoxicity); extreme values may be limits of the assay; conditions: incubation time: 72 h
How it was run: (§1)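 Plates with 384 wells held compound at 5 concentrations in 10-fold steps over a 10,000-fold range specific to each compound. Breast cancer cell lines were added in 20 µl suspension and incubated 72 h, then read for CellTox Green and CellTiter-Glo signals, with each plate normalised to 0.1 % DMSO and a positive kill control. The drug sensitivity score is based on the area under the fitted dose-response curve.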

Row | SMILES | drug sensitivity score
1 | CC[C@H](CO)Nc1nc(NCc2ccccc2)c2ncn(C(C)C)c2n1 [Seliciclib] | 0
2 | C=CCN(/C=C1/C(=O)O[C@H](COC)[C@@]2(C)C1=C(O)C(=O)C1=C2[C@H](OC(C)=O)C[C@]2(C)C(=O)CC[C@@H]12)CC=C [Sonolisib] | 0
3 | O=[N+]([O-])c1ccc2c(c1)S(=O)(=O)C=C2 [Stattic] | 7.49
4 | CC(C)n1cnc2c(NCCc3ccc(O)cc3)nc(-c3csc4ccccc34)nc21 [StemRegenin 1] | 0

system: CAL-148; assay: as above; conditions: incubation time: 72 h
How it was run: as §1

Row | SMILES | drug sensitivity score
5 | CCn1c(C(=O)N(C2CC2)C2CC2)cc2c3c(ncn3C)c(Nc3cc(C)n(C)n3)nc21 | 0
6 | COc1ccc(S(=O)(=O)Nc2cccnc2Nc2ccc(O)cc2)cc1 [ABT-751] | 3.29
7 | CN[C@@H](C)C(=O)N[C@H]1CN(C(=O)CC(C)C)CC[C@H]2CC[C@@H](C(=O)NC(c3ccccc3)c3ccccc3)N2C1=O [AT-406] | 0
8 | Cc1cc(Nc2nc(N[C@@H](C)c3ncc(F)cn3)ncc2Cl)[nH]n1 [AZD1480] | 0
9 | CC1(COc2ccc3c(c2)ncn3-c2ccc3cccc(N4CCC(N)CC4)c3n2)COC1 [Crenolanib] | 4.01
10 | CC(C)(C)c1nc(-c2cccc(NS(=O)(=O)c3c(F)cccc3F)c2F)c(-c2ccnc(N)n2)s1 [Dabrafenib] | 0
11 | Cc1nc(C(=O)NCC(=O)O)c(O)c2ccc(Oc3ccccc3)cc12 [FG-4592] | 0
12 | O=C(O)CNC(=O)c1c(O)c2ccccc2n(Cc2ccccc2)c1=O [IOX-2] | 0
13 | CN(C)C(=N)NC(=N)N [Metformin] | 0
14 | CC[C@H](CO)Nc1nc(NCc2ccccc2)c2ncn(C(C)C)c2n1 [Seliciclib] | 0
15 | C=CCN(/C=C1/C(=O)O[C@H](COC)[C@@]2(C)C1=C(O)C(=O)C1=C2[C@H](OC(C)=O)C[C@]2(C)C(=O)CC[C@@H]12)CC=C [Sonolisib] | 0
16 | O=[N+]([O-])c1ccc2c(c1)S(=O)(=O)C=C2 [Stattic] | 11.9
17 | CC(C)n1cnc2c(NCCc3ccc(O)cc3)nc(-c3csc4ccccc34)nc21 [StemRegenin 1] | 0

system: CAL-85-1; assay: as above; conditions: incubation time: 72 h
How it was run: as §1

Row | SMILES | drug sensitivity score
18 | CCn1c(C(=O)N(C2CC2)C2CC2)cc2c3c(ncn3C)c(Nc3cc(C)n(C)n3)nc21 | 0
19 | COc1ccc(S(=O)(=O)Nc2cccnc2Nc2ccc(O)cc2)cc1 [ABT-751] | 12.2
20 | CN[C@@H](C)C(=O)N[C@H]1CN(C(=O)CC(C)C)CC[C@H]2CC[C@@H](C(=O)NC(c3ccccc3)c3ccccc3)N2C1=O [AT-406] | 7.99
21 | Cc1cc(Nc2nc(N[C@@H](C)c3ncc(F)cn3)ncc2Cl)[nH]n1 [AZD1480] | 0
22 | CC1(COc2ccc3c(c2)ncn3-c2ccc3cccc(N4CCC(N)CC4)c3n2)COC1 [Crenolanib] | 4.49
23 | CC(C)(C)c1nc(-c2cccc(NS(=O)(=O)c3c(F)cccc3F)c2F)c(-c2ccnc(N)n2)s1 [Dabrafenib] | 0
24 | Cc1nc(C(=O)NCC(=O)O)c(O)c2ccc(Oc3ccccc3)cc12 [FG-4592] | 0
25 | O=C(O)CNC(=O)c1c(O)c2ccccc2n(Cc2ccccc2)c1=O [IOX-2] | 0
26 | CN(C)C(=N)NC(=N)N [Metformin] | 0
27 | CC[C@H](CO)Nc1nc(NCc2ccccc2)c2ncn(C(C)C)c2n1 [Seliciclib] | 0
28 | C=CCN(/C=C1/C(=O)O[C@H](COC)[C@@]2(C)C1=C(O)C(=O)C1=C2[C@H](OC(C)=O)C[C@]2(C)C(=O)CC[C@@H]12)CC=C [Sonolisib] | 0
29 | O=[N+]([O-])c1ccc2c(c1)S(=O)(=O)C=C2 [Stattic] | 17.8
30 | CC(C)n1cnc2c(NCCc3ccc(O)cc3)nc(-c3csc4ccccc34)nc21 [StemRegenin 1] | 0

system: HCC1143; assay: as above; conditions: incubation time: 72 h
How it was run: as §1

Row | SMILES | drug sensitivity score
31 | CCn1c(C(=O)N(C2CC2)C2CC2)cc2c3c(ncn3C)c(Nc3cc(C)n(C)n3)nc21 | 0
32 | COc1ccc(S(=O)(=O)Nc2cccnc2Nc2ccc(O)cc2)cc1 [ABT-751] | 6.19
33 | CN[C@@H](C)C(=O)N[C@H]1CN(C(=O)CC(C)C)CC[C@H]2CC[C@@H](C(=O)NC(c3ccccc3)c3ccccc3)N2C1=O [AT-406] | 0
34 | Cc1cc(Nc2nc(N[C@@H](C)c3ncc(F)cn3)ncc2Cl)[nH]n1 [AZD1480] | 0
35 | CC1(COc2ccc3c(c2)ncn3-c2ccc3cccc(N4CCC(N)CC4)c3n2)COC1 [Crenolanib] | 0
36 | CC(C)(C)c1nc(-c2cccc(NS(=O)(=O)c3c(F)cccc3F)c2F)c(-c2ccnc(N)n2)s1 [Dabrafenib] | 0
37 | Cc1nc(C(=O)NCC(=O)O)c(O)c2ccc(Oc3ccccc3)cc12 [FG-4592] | 0
38 | O=C(O)CNC(=O)c1c(O)c2ccccc2n(Cc2ccccc2)c1=O [IOX-2] | 0
39 | CN(C)C(=N)NC(=N)N [Metformin] | 0
40 | CC[C@H](CO)Nc1nc(NCc2ccccc2)c2ncn(C(C)C)c2n1 [Seliciclib] | 0
41 | C=CCN(/C=C1/C(=O)O[C@H](COC)[C@@]2(C)C1=C(O)C(=O)C1=C2[C@H](OC(C)=O)C[C@]2(C)C(=O)CC[C@@H]12)CC=C [Sonolisib] | 0
42 | O=[N+]([O-])c1ccc2c(c1)S(=O)(=O)C=C2 [Stattic] | 6.56
43 | CC(C)n1cnc2c(NCCc3ccc(O)cc3)nc(-c3csc4ccccc34)nc21 [StemRegenin 1] | 0
